We go through 27 molecules from patent US12577228B2, “Dihydrocyclopenta-isoquinoline-sulfonamide derivatives compounds” (UCB Biopharma SRL, priority 2019, dated 2026).

The target of this assay is T1, IgE-Tb / soluble IgE receptor FcεRIα with a Y131A mutation (Homo sapiens, UniProt P01854, N146Q/N252Q).
T1 construct: fused on or other part: Terbium chelate (LanthaScreen amine-reactive) on IgE-Fc; Alexa Fluor 488 hydrazide on the oxidised glycans of sFcεRIα; Both are labels and no part of the key
T1 sequence (P01854 104-427 N146Q/N252Q): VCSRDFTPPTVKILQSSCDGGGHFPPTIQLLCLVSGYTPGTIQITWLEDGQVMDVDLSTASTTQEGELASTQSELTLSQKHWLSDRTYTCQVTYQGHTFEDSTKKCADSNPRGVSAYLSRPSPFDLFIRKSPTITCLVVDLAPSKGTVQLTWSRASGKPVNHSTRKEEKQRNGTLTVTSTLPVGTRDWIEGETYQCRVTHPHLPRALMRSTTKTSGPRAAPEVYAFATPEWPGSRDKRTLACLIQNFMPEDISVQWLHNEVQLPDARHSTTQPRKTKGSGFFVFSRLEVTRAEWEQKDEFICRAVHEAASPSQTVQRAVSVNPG
T1 sequence (P12319 26-201 Y156A partner): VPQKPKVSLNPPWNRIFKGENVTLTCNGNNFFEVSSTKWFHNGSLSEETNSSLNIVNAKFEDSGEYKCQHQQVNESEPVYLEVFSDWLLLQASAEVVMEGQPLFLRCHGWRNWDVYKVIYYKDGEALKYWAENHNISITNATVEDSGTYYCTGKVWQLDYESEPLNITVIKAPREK
Briefly: in vitro FRET assay: binding of IgE-Tb to receptor FcεRIα-Y131A-AF488 and its inhibition by compounds. As to conditions: 5 nM IgE-Tb, 25 nM FcεRIα-Y131A-AF488, 2 hours at room temperature; read-out: FRET IC50 range.

Consider `CCNC(=O)N1Cc2cc3cnc(C4CC4)cc3c(S(=O)(=O)NCC(C)C)c2C1` [Example 100, 7-cyclopropyl-N-ethyl-9-(2-methylpropylsulfamoyl)-1,3-dihydropyrrolo[3,4-g]isoquinoline-2-carboxamide], for which the IC50 – broadly, the concentration needed to halve the response being measured – fell in the range of 100 to 2000 nM.

As to `CC(C)(F)CNS(=O)(=O)c1c2c(cc3cnc(C4CC4)cc13)CN(Cc1ccn[nH]1)C2` [Example 102, 7-cyclopropyl-N-(2-fluoro-2-methylpropyl)-2-(1H-pyrazol-5-ylmethyl)-1,3-dihydropyrrolo[3,4-g]isoquinoline-9-sulfonamide], the IC50 is 100 to 2000 nM.

Consider `CC(C)CNS(=O)(=O)c1c2c(cc3cnc(C4CC4)cc13)CC(Nc1ccnnc1)C2` (stereo not drawn) [Example 103, 3-cyclopropyl-N-isobutyl-7-(pyridazin-4-ylamino)-7,8-dihydro-6H-cyclopenta[g]isoquinoline-5-sulfonamide; formic acid], for which the IC50 was 10 to 50 nM.

As for `Cn1nccc1C(=O)NC1Cc2cc3cnc(C4CC4)cc3c(S(=O)(=O)NCC(C)(C)F)c2C1` (stereo not drawn) [Example 104, N-[3-cyclopropyl-5-[(2-fluoro-2-methylpropyl)sulfamoyl]-7,8-dihydro-6H-cyclopenta[g]isoquinolin-7-yl]-2-methylpyrazole-3-carboxamide], the IC50 was in the range of 50 to 100 nM.

For the molecule `CC(C)(F)CNS(=O)(=O)c1c2c(cc3cnc(C4CC4)cc13)C[C@@H](Nc1cncc3nn(CCO)cc13)C2` [Example 106, (7R)-3-cyclopropyl-N-(2-fluoro-2-methylpropyl)-7-[[2-(2-hydroxyethyl)pyrazolo[3,4-c]pyridin-4-yl]amino]-7,8-dihydro-6H-cyclopenta[g]isoquinoline-5-sulfonamide], the IC50 lay in the range of 10 to 50 nM.

In the case of `CC(C)(F)CNS(=O)(=O)c1c2c(cc3cnc(C4CC4)cc13)CC1CC21` (stereo not drawn) [Example 107, 13-cyclopropyl-N-(2-fluoro-2-methylpropyl)-12-azatetracyclo[8.4.0.03,8.04,6]tetradeca-1 (10),2,8,11,13-pentaene-2-sulfonamide], the IC50 lay within 100 to 2000 nM.

`Cn1ccc(-c2ccc(N[C@@H]3Cc4cc5cnc(C6CC6)cc5c(S(=O)(=O)NCC(C)(C)F)c4C3)cn2)n1` [Example 108, (7R)-3-cyclopropyl-N-(2-fluoro-2-methylpropyl)-7-[[6-(1-methylpyrazol-3-yl)pyridin-3-yl]amino]-7,8-dihydro-6H-cyclopenta[g]isoquinoline-5-sulfonamide]: the IC50 lay in the range of 10 to 50 nM.

Consider `CC(C)(F)CNS(=O)(=O)c1c2c(cc3cnc(C4CC4)cc13)CC(Nc1cncc3nccn13)C2` (stereo not drawn) [Example 109, 3-cyclopropyl-N-(2-fluoro-2-methylpropyl)-7-(imidazo[1,2-a]pyrazin-5-ylamino)-7,8-dihydro-6H-cyclopenta[g]isoquinoline-5-sulfonamide], for which the IC50 lay within 10 to 50 nM.

For the molecule `CC(C)(F)CNS(=O)(=O)c1c2c(cc3cnc(C4CC4)cc13)CC(c1cccnc1)C2` (stereo not drawn) [Example 110, 3-cyclopropyl-N-(2-fluoro-2-methylpropyl)-7-pyridin-3-yl-7,8-dihydro-6H-cyclopenta[g]isoquinoline-5-sulfonamide], the IC50 was 100 to 2000 nM.

As to `O=c1cc(C2Cc3cc4cnc(C5CC5)cc4c(S(=O)(=O)NC4CC(F)(F)C4)c3C2)[nH]n1-c1cccnc1` (stereo not drawn) [Example 111, 3-cyclopropyl-N-(3,3-difluorocyclobutyl)-7-(3-oxo-2-pyridin-3-yl-1H-pyrazol-5-yl)-7,8-dihydro-6H-cyclopenta[g]isoquinoline-5-sulfonamide], the IC50 lay within 100 to 2000 nM.

On to `Cn1nc(O)cc1NC1Cc2cc3cnc(C4CC4)cc3c(S(=O)(=O)NCC(C)(C)F)c2C1` (stereo not drawn) [Example 112, 3-cyclopropyl-N-(2-fluoro-2-methylpropyl)-7-[(5-hydroxy-2-methylpyrazol-3-yl)amino]-7,8-dihydro-6H-cyclopenta[g]isoquinoline-5-sulfonamide], for which the IC50 lay within 100 to 2000 nM.

For the molecule `CC(C)(C)CNC(=O)C1Cc2cc3nnc(C4CC4)cc3c(S(=O)(=O)NCC(C)(C)F)c2C1` (stereo not drawn) [Example 113, 3-cyclopropyl-N-(2,2-dimethylpropyl)-5-[(2-fluoro-2-methylpropyl)sulfamoyl]-7,8-dihydro-6H-cyclopenta[g]cinnoline-7-carboxamide], the IC50 fell in the range of 100 to 2000 nM.

For `CC(=O)c1ccc(N[C@@H]2Cc3cc4cnc(C5CC5)cc4c(S(=O)(=O)NCC(C)(C)F)c3C2)cc1` [Example 114, (7R)-7-(4-acetylanilino)-3-cyclopropyl-N-(2-fluoro-2-methylpropyl)-7,8-dihydro-6H-cyclopenta[g]isoquinoline-5-sulfonamide], the IC50 lay in the range of 50 to 100 nM.

For `CC(C)(F)CNS(=O)(=O)c1c2c(cc3cnc(C4CC4)cc13)C[C@@H](Nc1ccc(C(F)F)nc1)C2` [Example 118, (7R)-3-cyclopropyl-7-[[6-(difluoromethyl)pyridin-3-yl]amino]-N-(2-fluoro-2-methylpropyl)-7,8-dihydro-6H-cyclopenta[g]isoquinoline-5-sulfonamide], the IC50 fell in the range of 10 to 50 nM.

`CC(C)(F)CNS(=O)(=O)c1c2c(cc3cnc(C4CC4)cc13)C[C@@H](Nc1cnc(Cl)cc1OCC1CC1)C2` [Example 119, (7R)-7-[[6-chloro-4-(cyclopropylmethoxy)pyridin-3-yl]amino]-3-cyclopropyl-N-(2-fluoro-2-methylpropyl)-7,8-dihydro-6H-cyclopenta[g]isoquinoline-5-sulfonamide]: the IC50 was in the range of 50 to 100 nM.

`CC(C)(F)CNS(=O)(=O)c1c2c(cc3cnc(C4CC4)cc13)C[C@@H](Nc1cncnc1OC1CCOCC1)C2` [Example 120, (7R)-3-cyclopropyl-N-(2-fluoro-2-methylpropyl)-7-[[4-(oxan-4-yloxy)pyrimidin-5-yl]amino]-7,8-dihydro-6H-cyclopenta[g]isoquinoline-5-sulfonamide]: the IC50 lay within 50 to 100 nM.

Take `CC(=O)Nc1cncc(NC2Cc3cc4cnc(C5CC5)cc4c(S(=O)(=O)NCC(C)(C)F)c3C2)c1` (stereo not drawn) [Example 121, N-[5-[[3-cyclopropyl-5-[(2-fluoro-2-methylpropyl)sulfamoyl]-7,8-dihydro-6H-cyclopenta[g]isoquinolin-7-yl]amino]pyridin-3-yl]acetamide]: the IC50 was 10 to 50 nM.

In the case of `CC(C)(F)CNS(=O)(=O)c1c2c(cc3cnc(C4CC4)cc13)CC(Nc1cncc(C#N)c1)C2` (stereo not drawn) [Example 122, 7-[(5-cyanopyridin-3-yl)amino]-3-cyclopropyl-N-(2-fluoro-2-methylpropyl)-7,8-dihydro-6H-cyclopenta[g]isoquinoline-5-sulfonamide], the IC50 is 100 to 2000 nM.

Consider `CC(C)(F)CNS(=O)(=O)c1c2c(cc3cnc(C4CC4)cc13)CC(Nc1cncc(S(C)(=O)=O)c1)C2` (stereo not drawn) [Example 123, 3-cyclopropyl-N-(2-fluoro-2-methylpropyl)-7-[(5-methylsulfonylpyridin-3-yl)amino]-7,8-dihydro-6H-cyclopenta[g]isoquinoline-5-sulfonamide], for which the IC50 fell in the range of 10 to 50 nM.

For the molecule `CC(C)(F)CNS(=O)(=O)c1c2c(cc3cnc(C4CC4)cc13)C[C@@H](Nc1cnc(-c3nnn[nH]3)nc1)C2` [Example 124, (7R)-3-cyclopropyl-N-(2-fluoro-2-methylpropyl)-7-[[2-(1H-tetrazol-5-yl)pyrimidin-5-yl]amino]-7,8-dihydro-6H-cyclopenta[g]isoquinoline-5-sulfonamide], the IC50 fell in the range of 10 to 50 nM.

In the case of `Cn1nnc(-c2ccc(N[C@@H]3Cc4cc5cnc(C6CC6)cc5c(S(=O)(=O)NCC(C)(C)F)c4C3)cc2)n1` [Example 125, (7R)-3-cyclopropyl-N-(2-fluoro-2-methylpropyl)-7-[4-(2-methyltetrazol-5-yl)anilino]-7,8-dihydro-6H-cyclopenta[g]isoquinoline-5-sulfonamide], the IC50 lay in the range of 50 to 100 nM.

With `CC(C)(F)CNS(=O)(=O)c1c2c(cc3cnc(C4CC4)cc13)C[C@@H](Nc1cnc(Cl)cc1-c1nnn[nH]1)C2` [Example 126, (7R)-7-[[6-chloro-4-(1H-tetrazol-5-yl)pyridin-3-yl]amino]-3-cyclopropyl-N-(2-fluoro-2-methylpropyl)-7,8-dihydro-6H-cyclopenta[g]isoquinoline-5-sulfonamide], the IC50 was 100 to 2000 nM.

Take `CC(C)(F)CNS(=O)(=O)c1c2c(cc3cnc(C4CC4)cc13)C[C@@H](NC1=CC(=O)COC1)C2` [Example 127, (7R)-3-cyclopropyl-N-(2-fluoro-2-methylpropyl)-7-[(5-oxo-2H-pyran-3-yl)amino]-7,8-dihydro-6H-cyclopenta[g]isoquinoline-5-sulfonamide]: the IC50 was 100 to 2000 nM.

With `Cn1ccc(Oc2ccncc2N[C@@H]2Cc3cc4cnc(C5CC5)cc4c(S(=O)(=O)NCC(C)(C)F)c3C2)n1` [Example 128, (7R)-3-cyclopropyl-N-(2-fluoro-2-methylpropyl)-7-[[4-(1-methylpyrazol-3-yl)oxypyridin-3-yl]amino]-7,8-dihydro-6H-cyclopenta[g]isoquinoline-5-sulfonamide], the IC50 was 50 to 100 nM.

Consider `Cc1nnc(-c2ncc(N[C@@H]3Cc4cc5cnc(C6CC6)cc5c(S(=O)(=O)NCC(C)(C)F)c4C3)cn2)o1` [Example 129, (7R)-3-cyclopropyl-N-(2-fluoro-2-methylpropyl)-7-[[2-(5-methyl-1,3,4-oxadiazol-2-yl)pyrimidin-5-yl]amino]-7,8-dihydro-6H-cyclopenta[g]isoquinoline-5-sulfonamide], for which the IC50 fell in the range of 10 to 50 nM.

For `CC(C)(F)CNS(=O)(=O)c1c2c(cc3cnc(C4CC4)cc13)C[C@@H](NC(=O)c1c[nH]c3ccccc13)C2` [Example 130, N-[(7R)-3-cyclopropyl-5-[(2-fluoro-2-methylpropyl)sulfamoyl]-7,8-dihydro-6H-cyclopenta[g]isoquinolin-7-yl]-1H-indole-3-carboxamide], the IC50 fell in the range of 10 to 50 nM.

Regarding `CC(C)(F)CNS(=O)(=O)c1c2c(cc3cnc(C4CC4)cc13)C[C@@H](NC(=O)c1c[nH]c3ccc(F)cc13)C2` [Example 131, N-[(7R)-3-cyclopropyl-5-[(2-fluoro-2-methylpropyl)sulfamoyl]-7,8-dihydro-6H-cyclopenta[g]isoquinolin-7-yl]-5-fluoro-1H-indole-3-carboxamide], the IC50 lay within 10 to 50 nM.
